Read-outs that look alike come from different tables or passages of the source.
Key:
[1] = tested on: T. gondii RH strain (RH-Tub-eYFP) tachyzoites; test: microbe, parasite or virus in culture; format: cell-based, Toxoplasma gondii; settings: 72 h; for percent parasite growth at 2 µg/mL: Toxoplasma gondii
[2] = tested on: P. falciparum 3D7 parasites; test: P. falciparum growth inhibition assay, 2-cycle (120 h treatment), delayed-death screen and dose-response; format: cell-based, Plasmodium falciparum; settings: for activity at 2 µg/mL: Plasmodium falciparum, 3D7, 120 h
[3] = tested on: P. falciparum 3D7 parasites; test: P. falciparum growth inhibition assay, 1-cycle (72 h treatment), SYBR DNA staining (library screen at 2 μg/mL and dose-response); format: cell-based, Plasmodium falciparum; settings: for activity at 2 µg/mL: Plasmodium falciparum, 3D7, 72 h
[4] = T. gondii, screen at 2 μg/mL, replicate 1
[5] = T. gondii, screen at 2 μg/mL, replicate 2
[6] = P. falciparum, 120 h, screen at 2 μg/mL, replicate 1
[7] = P. falciparum, 120 h, screen at 2 μg/mL, replicate 2
[8] = P. falciparum, 72 h, screen at 2 μg/mL, replicate 1
[9] = P. falciparum, 72 h, screen at 2 μg/mL, replicate 2
[10] = T. gondii, parasite screen 2 μg/mL, % growth, replicate 1
[11] = T. gondii, parasite screen 2 μg/mL, % growth, replicate 2
[12] = P. falciparum, 120 h, parasite screen 2 μg/mL, % growth, replicate 1
[13] = P. falciparum, 120 h, parasite screen 2 μg/mL, % growth, replicate 2
[14] = P. falciparum, 72 h, parasite screen 2 μg/mL, % growth, replicate 1
[15] = P. falciparum, 72 h, parasite screen 2 μg/mL, % growth, replicate 2
[16] = T. gondii, 2 μg/mL, values are growth (% of control)

In the case of COc1cc(O)c2c(c1)/C=C/C[C@H](O)[C@H](O)C(=O)/C=C/C[C@H](C)OC2=O [BIA-O1897], the Tg_72h_%Growth_Rep1 ([1]; T. gondii, parasite screen at 2 μg/mL, % growth, replicate 1) is reported as 58.83%, the Tg_72h_%Growth_Rep2 ([1]; T. gondii, parasite screen at 2 μg/mL, % growth, replicate 2) is reported as 79.20% and the Pf_120h_%Growth_Rep1 ([2]; P. falciparum 3D7, 120 h, parasite screen at 2 μg/mL, % growth, replicate 1) is reported as 71.81%. The Pf_120h_%Growth_Rep2 ([2]; P. falciparum 3D7, 120 h, parasite screen at 2 μg/mL, % growth, replicate 2) was 72.01%, the Pf_72h_%Growth_Rep1 ([3]; P. falciparum 3D7, 72 h, parasite screen at 2 μg/mL, % growth, replicate 1) was 68.65% and the Pf_72h_%Growth_Rep2 ([3]; P. falciparum 3D7, 72 h, parasite screen at 2 μg/mL, % growth, replicate 2) was 68.31%.

With CC(=O)N[C@H]1[C@H](O[C@@H]2c3ccc(c(Cl)c3)Oc3cc4cc(c3O[C@@H]3O[C@H](CO)[C@@H](O)[C@H](O)[C@H]3NC(=O)CCCCCCCC(C)C)Oc3ccc(cc3Cl)C[C@H]3NC(=O)[C@H](N)c5ccc(O)c(c5)Oc5cc(O)cc(c5)[C@H](NC3=O)C(=O)N[C@H]4C(=O)N[C@H]3C(=O)N[C@@H]2C(=O)N[C@H](C(=O)O)c2cc(O)cc(O[C@H]4O[C@H](CO)[C@@H](O)[C@H](O)[C@@H]4O)c2-c2cc3ccc2O)O[C@H](CO)[C@@H](O)[C@@H]1O [Teicoplanin A2-5] the Tg_72h_%Growth_Rep1 [1, 4] was 105.42%, the Tg_72h_%Growth_Rep2 [1, 5] was 91.45% and the Pf_120h_%Growth_Rep1 [2, 6] was 86.61%. For the same molecule, the Pf_120h_%Growth_Rep2 [2, 7] was 122.81%, the Pf_72h_%Growth_Rep1 [3, 8] was 86.27% and the Pf_72h_%Growth_Rep2 [3, 9] was 115.48%.

With COC1=C(OC)C(=O)[C@@H](C)[C@H](C)C1=O [BIA-G1680] the Tg_72h_%Growth_Rep1 ([1]; T. gondii RH, library screen at 2 μg/mL, % growth, replicate 1) was 146.51%, the Tg_72h_%Growth_Rep2 ([1]; T. gondii RH, library screen at 2 μg/mL, % growth, replicate 2) was 97.35% and the Pf_120h_%Growth_Rep1 ([2]; P. falciparum 3D7, 120 h, library screen at 2 μg/mL, % growth, replicate 1) was 27.26%. It also gave a Pf_120h_%Growth_Rep2 ([2]; P. falciparum 3D7, 120 h, library screen at 2 μg/mL, % growth, replicate 2) of 12.29%, a Pf_72h_%Growth_Rep1 ([3]; P. falciparum 3D7, 72 h, library screen at 2 μg/mL, % growth, replicate 1) of 4.48% and a Pf_72h_%Growth_Rep2 ([3]; P. falciparum 3D7, 72 h, library screen at 2 μg/mL, % growth, replicate 2) of 3.13%.

For CCCCCCCCCCCCCCCC(=O)C1=C(O)C(CO)OC1=O (stereo not drawn) [TAN 1364B], the Tg_72h_%Growth_Rep1 [1, 10] was 101.38%, the Tg_72h_%Growth_Rep2 [1, 11] was 92.62% and the Pf_120h_%Growth_Rep1 [2, 12] was 149.02%. For the same molecule, the Pf_120h_%Growth_Rep2 [2, 13] was 76.93%, the Pf_72h_%Growth_Rep1 [3, 14] was 72.25% and the Pf_72h_%Growth_Rep2 [3, 15] was 85.83%.

With CCCC[C@H]1C(=O)O[C@H](C)[C@H](NC(=O)c2cccc(NC=O)c2O)C(=O)O[C@@H](C)[C@@H]1OC(=O)CC(C)C [Antimycin A3] the Mean ([1]; T. gondii, 2 μg/mL, mean of both replicates, growth (% of control)) was 21.56, the “Replicate 1” value [1, 16] was 30.27 and the “Replicate 2” value [1, 16] was 12.84. The percent parasite growth at 2 µg/mL ([1]; library screen at 2 μg/mL, % growth, replicate 1, read-out: Tg_72h_%Growth_Rep1) was 30.3%, the percent parasite growth at 2 µg/mL ([1]; library screen at 2 μg/mL, % growth, replicate 2, read-out: Tg_72h_%Growth_Rep2) was 12.8% and the activity at 2 µg/mL ([2]; library screen at 2 μg/mL, 120 h, % growth, replicate 1, read-out: Pf_120h_%Growth_Rep1) was 45.4%. For the same molecule, the activity at 2 µg/mL ([2]; library screen at 2 μg/mL, 120 h, % growth, replicate 2, read-out: Pf_120h_%Growth_Rep2) was 32%, the activity at 2 µg/mL ([3]; library screen at 2 μg/mL, 72 h, % growth, replicate 1, read-out: Pf_72h_%Growth_Rep1) was 47.1% and the activity at 2 µg/mL ([3]; library screen at 2 μg/mL, 72 h, % growth, replicate 2, read-out: Pf_72h_%Growth_Rep2) was 38.8%.

CC[C@H]1CCC[C@H](O)[C@@H](C)C(=O)C2=C[C@@H]3[C@@H](C=C(C)[C@@H]4C[C@@H](O[C@@H]5O[C@@H](C)[C@H](OC)[C@@H](OC)[C@H]5OC)C[C@@H]34)[C@@H]2CC(=O)O1 [Spinosyn D 17-pseudoaglycone] was tested, and the Tg_72h_%Growth_Rep1 [1, 10] was 111.08%, the Tg_72h_%Growth_Rep2 [1, 11] was 100.61% and the Pf_120h_%Growth_Rep1 [2, 12] was 8.86%. The Pf_120h_%Growth_Rep2 [2, 13] was 19.25%, the Pf_72h_%Growth_Rep1 [3, 14] was 18.47% and the Pf_72h_%Growth_Rep2 [3, 15] was 12.37%.

Molecule C=CC(C)(C)c1[nH]c2ccccc2c1C[C@@H]1NC(=O)[C@@H]2CCCN2C1=O [Deoxybrevianamide E] has a Tg_72h_%Growth_Rep1 [1, 4] of 164.73%, a Tg_72h_%Growth_Rep2 [1, 5] of 103.33% and a Pf_120h_%Growth_Rep1 [2, 6] of 100.44%. For the same molecule, the Pf_120h_%Growth_Rep2 [2, 7] was 95.74%, the Pf_72h_%Growth_Rep1 [3, 8] was 84.72% and the Pf_72h_%Growth_Rep2 [3, 9] was 85.50%.
